Here are results for twelve compounds from EP3958860B1, “COMPOUNDS EXHIBITING ANTI-TUBERCULOSIS ACTIVITY” (priority 2019, dated 2021).

Converted amounts (≈) assume the structure as drawn. Like-named read-outs stand apart in the source and are kept apart here.

Series [1] concerns Mycobacterium tuberculosis H37Rv. Description: MIC determination by MABA (Microplate Alamar Blue Assay). In kind it is cell-based. To be noted: for MIC: Mycobacterium tuberculosis, H37RV. On the procedure:
Following this, to determine the actual minimum inhibitory concentration in the second phase, both of the compounds were retested to the lowest concentration of Mycobacterium tuberculosis H37Rv with the technique of MABA (Microplate Alamar Blue Assay) and MIC value for the 1st compound was determined <0.03 µg/ml while this value was determined <0.05 µg/ml for the second compound. The result of Rifampicin subjected to the assay under the same conditions was determined as 0.25 µg/ml.
(In general: The colour change of resazurin is a common sign of viable cells or microbes.)

Series [2] can be described thus: In vivo animal toxicity tests (maximum tolerable dose).
Series [3] is classed as physicochemical. On the procedure: To ensure that Compound 2 is dissolved in water, in the assays carried out with solubility enhancing cyclodextrin molecules, different cyclodextrins [hydroxypropyl beta-cyclodextrin (HP-β-CD), sulfobutyl ether beta-cyclodextrin (SBE-β-CD)], different methods [kneading, evaporation, lyophilization], different solvents (dimethyl sulfoxide, methanol, ethanol) were studied at the molar ratio of 1: 1 compound: cyclodextrin.

Series [4] is classed as physicochemical. On the procedure:
In the assays carried out with the solubility enhancing Polysorbate 80 (Tween 80) in order to ensure water solubility of Compound 2, firstly solubility of the compound was determined in an aqueous solution prepared with a mass ratio of 1:6 (compound: Tween 80) and then the same mass ratio was studied with different solvents (ethanol, methanol) and different drying methods (evaporation, evaporation+lyophilization). In light of the results of solubility obtained and presented below Table 2, it has determined that the solution of the compound that was prepared with the Tween 80 in methanol medium had the highest solubility rate after evaporation.
Details of the method where high solubility was determined with Polysorbate 80 (Tween 80) are presented below: After the substances at the mass ratio of 1:6 (compound: Tween 80) were dissolved in 7 ml methanol, they were evaporated in a rotating evaporator at 175 RPM, at a temperature of 40°C and a vacuum of […]. The thin film obtained was firstly blended with vortex adding 3 ml water, and then was left to rest for 15 minutes in an ultrasonic bath. The mixture obtained was filtered out with a plastic filter having a pore diameter of 0.2 µm and afterward solubility ratio of the mixture was determined with HPLC.
The source holds these as a separate data set.

Series [5] has as its system Mycobacterium avium. Put plainly: MIC on Mycobacterium avium with BACTEC. Type of series: cell-based. To be noted: for MIC: Mycobacterium avium, BACTEC.
The test system of series [6] is Mycobacterium tuberculosis H37Rv (ATCC27294). Type of series: cell-based.
Where [7] appears, read: first value of the cell (outside parentheses), MABA, read-out: MIC H37Rv.
Where [8] appears, read: first value of the cell (outside parentheses), MABA.
[9] abbreviates: value printed in parentheses after the bound <12.5, read-out: MIC H37Rv (µg/ml), value in parentheses.
Where [10] appears, read: read-out: MIC H37Rv (µg/ml), value in parentheses.

Consider `CC(=NNC(N)=S)c1ccc2c(c1)CCC2` [Compound 1, 2-[1-(2,3-dihydro-1H-inden-5-yl)ethylidene]hydrazinecarbothioamide], for which the MIC in series [1] (setting [7]) was below 0.03 µg/mL. Besides, the “MIC H37Rv” value in series [1] (setting [8]) was below 0.03 µg/mL. This compound registered a maximum tolerable dose in series [2] of 1000 mg/kg.

`COc1ccc(O)c(-c2csc(NN=C(C)c3ccc4c(c3)CCC4)n2)c1` [Compound 2, 2-[2-(2-(1-(2,3-dihydro-1H-inden-5-yl)ethylidene)hydrazinyl)thiazole-4-yl]-4-methoxy phenol]: the MIC was below 0.05 µg/mL in series [1] (setting [7]) and 0.39 µg/mL (≈ 1.03 µM) in series [5]. In series [1] (setting [8]), the “MIC H37Rv” value is below 0.05 µg/mL. The increase in solubility result in series [3] is given as “any significant increase in solubility was not observed”. Also, the “dissolved in water at the ratio of” value in series [3] (HP-β-CD, molar ratio 1:1, evaporation method within ethanol) stood at 0.59 µg/mL. Further, the “Solubility ratio in the aqueous solution” value in series [4] is recorded as “Solubility ratio in the aqueous solution prepared with the mass ratio of 1:6 (compound: Tween 80) 42,44 µg/ml”. Besides, the “The ratio of water solubility” value is 58,80 µg/ml in series [4] and 70,05 µg/ml in series [4] (15 min). In addition, the “activity on Mycobacterium avium” value in series [5] is “exhibited activity”.

On to `CC(=NNc1nc(-c2ccc(Cl)cc2)cs1)c1ccc2c(c1)CCC2` [Compound 3, 4-(4-Chlorophenyl)-2-[2-(1-(2,3-dihydro-1H-inden-5yl)ethylidene)hydrazinyl] thiazole], for which the MIC is below 12.5 µg/mL in series [1] (setting [7]), 0.39 µg/mL (≈ 1.06 µM) in series [1] (setting [9]) and 0.78 µg/mL (≈ 2.12 µM) in series [5].

As for `CC(=NNc1nc(-c2ccccc2O)cs1)c1ccc2c(c1)CCC2` [Compound 4, 2-[2-(2-(1-(2,3-Dihydro-1H-inden-5-yl)ethylidene)hydrazinyl)thiazol-4-yl]phenol], the MIC in series [1] (setting [7]) was below 12.5 µg/mL; in series [1] (setting [9]), 0.2 µg/mL (≈ 0.572 µM); in series [5] it was 0.78 µg/mL (≈ 2.23 µM).

Turning to `CC(=NNc1nc(-c2cc(Cl)ccc2O)cs1)c1ccc2c(c1)CCC2` [Compound 5, 4-Chloro-2-[2-(2-(1-(2,3-dihydro-1H-inden-5-yl)ethylidene)hydrazinyl)thiazol-4-yl]phenol], the MIC in series [1] (setting [7]) is below 12.5 µg/mL.

Turning to `CC(=NNc1nc(-c2ccc(Br)cc2)cs1)c1ccc2c(c1)CCC2` [Compound 6, 4-(4-Bromophenyl)-2-[2-(1-(2,3-dihydro-1H-inden-5-yl)ethylidene)hydrazinyl] thiazole], the MIC in series [1] (setting [7]) was below 12.5 µg/mL; in series [1] (setting [9]) it was 0.39 µg/mL (≈ 0.946 µM); in series [5], 1.56 µg/mL (≈ 3.78 µM).

With `C/C(=N\Nc1nc(-c2ccc(C)cc2)cs1)c1ccc2c(c1)CCC2` [Compound 7], the MIC was below 12.5 µg/mL in series [1] (read-out: MIC H37Rv (µg/ml)), 0.2 µg/mL (≈ 0.576 µM) in series [1] (setting [10]) and 0.2 µg/mL (≈ 0.576 µM) in series [5]. For the same compound, the “Primary screening % inhibition” value in series [6] was 94%.

For the compound `COc1ccc(-c2csc(NN=C(C)c3ccc4c(c3)CCC4)n2)c(O)c1` [Compound 8, 2-[2-(2-(1-(2,3-Dihydro-1H-inden-5-yl)ethylidene)hydrazinyl)thiazol-4-yl]-5-methoxyphenol], the MIC in series [1] (setting [7]) is below 12.5 µg/mL.

Turning to `CC(=NNc1nc(-c2ccc(C)cc2O)cs1)c1ccc2c(c1)CCC2` [Compound 9, 2-[2-(2-(1-(2,3-Dihydro-1H-inden-5-yl)ethylidene)hydrazinyl)thiazol-4-yl]-5-methylphenol], the MIC in series [1] (setting [7]) was below 12.5 µg/mL; in series [1] (setting [9]) it was 0.05 µg/mL (≈ 0.138 µM); in series [5], 0.1 µg/mL (≈ 0.275 µM).

As to `C/C(=N\Nc1nc(-c2ccc([N+](=O)[O-])cc2)cs1)c1ccc2c(c1)CCC2` [Compound 10], the figures for the MIC in series [1] (read-out: MIC H37Rv (µg/ml)), in series [1] (setting [10]) and in series [5] were below 12.5 µg/mL, 1.56 µg/mL (≈ 4.12 µM) and 3.13 µg/mL (≈ 8.27 µM), respectively. In addition, the “Primary screening % inhibition” value in series [6] is 93%.

Consider `CC(=NNc1nc(-c2ccccc2)cs1)c1ccc2c(c1)CCC2` [Compound 11, 2-[2-(1-(2,3-Dihydro-1H-inden-5-yl)ethylidene)hydrazinyl]-4-phenylthiazole], for which the MIC in series [1] (read-out: MIC H37Rv (µg/ml)) is below 12.5 µg/mL; in series [1] (setting [10]) it was 3.13 µg/mL (≈ 9.39 µM); in series [5] it was 12.5 µg/mL (≈ 37.5 µM).

On to `CO[C@H]1/C=C/O[C@@]2(C)Oc3c(C)c(O)c4c(O)c(c(/C=N/N5CCN(C)CC5)c(O)c4c3C2=O)NC(=O)/C(C)=C\C=C\[C@H](C)[C@H](O)[C@@H](C)[C@@H](O)[C@@H](C)[C@H](OC(C)=O)[C@@H]1C` [Rifampicin, reference compound], for which the MIC in series [1] (setting [7]) is 0.25 µg/mL (≈ 0.304 µM).
